Consider eight compounds from patent US11560395B2, “Azithromycin derivatives containing a phosphonium ion as anticancer agents” (Rising Tide Foundation, priority 2017, dated 2023).

This assay concerns MDA-231 cancer cells. In words: Inhibition of proliferation assay, cell confluence (IncuCyte live cell imaging). It is filed as cell-based. Conditions: MDA-231 cells, concentration 10 uM; relative confluence normalised to time zero, images every 3 h over 4-5 d. An excerpt: Inhibition of Proliferation Assay Cell Confluence The confluence value is a surrogate for cell proliferation and growth. The value is expressed as a percent confluence, which represents the fraction of culture dish-surface that is occupied by cells. As the number of cells in the dish increases over time due to proliferation, so will their coverage of that surface increase. Expansion of the cell population on the cell culture-dish surface and confluence have mostly a linear relationship until the cells on the plate surface begin to reach saturation or maximum density. Confluence is determined based on image analysis. Image based software can identify objects in the image field base on changes to pixel density in a grey scale image. The software can then assign a mask to those pixels within the object. Objects can be ‘gated’ out based on size and shape. To determine cell confluence, images of cells are first masked as objects. The surface area of the image that is masked is measured and compared to the total surface area of the culture dish surface to obtain a percent confluence. MDA-231 cancer cells were obtained from ATCC. Cells were cultured in Dulbecco's Modified Eagle Medium (DMEM) supplemented with 10% Fetal Bovine Serum (FBS), 2 mM Glutamax, 1 mM Non Essential Amino Acid (NEAA) solution and 1 mM sodium pyruvate. Compounds were dissolved in DMSO at 10 mM and diluted in cellular medium and tested at 10 μM (micromolar). Final DMSO concentrations were <0.1%. Images were acquired with an IncuCyte Live Cell Imaging microscopy (Essen Bioscience) at every 3 h under cell culture conditions with 10× objective over 4-5 d. Cell confluence was calculated from one field of view per well using the IncuCyte in-built algorithm. Relative confluence values were obtained by normalising each value to the time zero value in each sample.
As for `CC[C@H]1OC(=O)[C@H](C)[C@@H](O[C@H]2C[C@@](C)(OC)[C@@H](O)[C@H](C)O2)[C@H](C)[C@@H](O[C@@H]2O[C@H](C)C[C@H](N(C)C)[C@H]2O)[C@](C)(O)C[C@@H](C)CN(C(=O)CCCCCCCCCC[P+](c2ccccc2)(c2ccccc2)c2ccccc2)[C@H](C)[C@@H](O)[C@]1(C)O.[Cl-]` [Example 25, {11-[(2R,3S,4R,5R,8R,10R,11R,12S,13S,14R)-11-{[(2S,3R,4S,6R)-4-(dimethylamino)-3-hydroxy-6-methyloxan-2-yl]oxy}-2-ethyl-3,4,10-trihydroxy-13-{[(2R,4R,5S,6S)-5-hydroxy-4-methoxy-4,6-dimethyloxan-2-yl]oxy}-3,5,8,10,12,14-hexamethyl-15-oxo-1-oxa-6-azacyclopentadecan-6-yl]-11-oxoundecyl}triphenylphosphonium chloride], the “% Confluence” value amounted to 4.4%.
For `CC[C@H]1OC(=O)[C@H](C)[C@@H](O[C@H]2C[C@@](C)(OC)[C@@H](O)[C@H](C)O2)[C@H](C)[C@@H](O[C@@H]2O[C@H](C)C[C@H](N(C)C)[C@H]2O)[C@](C)(O)C[C@@H](C)CN(C)[C@H](C)[C@@H](OC(=O)NCCCCCCCCCC[P+](c2ccccc2)(c2ccccc2)c2ccccc2)[C@]1(C)O.[Br-]` [Example 19, (2R,3R,4R,5R,8R,10R,11R,12S,13S,14R)-11-{[(2S,3R,4S,6R)-4-(dimethylamino)-3-hydroxy-6-methyloxan-2-yl]oxy}-2-ethyl-3,10-dihydroxy-13-{[(2R,4R,5S,6S)-5-hydroxy-4-methoxy-4,6-dimethyloxan-2-yl]oxy}-3,5,6,8,10,12,14-heptamethyl-15-oxo-1-oxa-6-azacyclopentadecan-4-yl N-[10-(triphenylphosphoniumyl)decyl]carbamate bromide] the value was 9.7%.
For `CC[C@H]1OC(=O)[C@H](C)[C@@H](O[C@H]2C[C@@](C)(OC)[C@@H](O)[C@H](C)O2)[C@H](C)[C@@H](O[C@@H]2O[C@H](C)C[C@H](N(C)C)[C@H]2O)[C@](C)(O)C[C@@H](C)CN(C)[C@H](C)[C@@H](OC(=O)NCCCCCCCC[P+](c2ccccc2)(c2ccccc2)c2ccccc2)[C@]1(C)O.[Br-]` [Example 20, (2R,3R,4R,5R,8R,10R,11R,12S,13S,14R)-11-{[(2S,3R,4S,6R)-4-(dimethylamino)-3-hydroxy-6-methyloxan-2-yl]oxy}-2-ethyl-3,10-dihydroxy-13-{[(2R,4R,5S,6S)-5-hydroxy-4-methoxy-4,6-dimethyloxan-2-yl]oxy}-3,5,6,8,10,12,14-heptamethyl-15-oxo-1-oxa-6-azacyclopentadecan-4-yl N-[8-(triphenylphosphoniumyl)octyl]carbamate bromide] the value was 13.5%; for `CC[C@H]1OC(=O)[C@H](C)[C@@H](O)[C@H](C)[C@@H](O)[C@](C)(O)C[C@@H](C)CN(C(=O)CCCCCCCCCCCCC[P+](c2ccccc2)(c2ccccc2)c2ccccc2)[C@H](C)[C@@H](O)[C@]1(C)O` [Example 16, {14-[(2R,3S,4R,5R,8R,10R,11R,12S,13S,14R)-2-ethyl-3,4,10,11,13-pentahydroxy-3,5,8,10,12,14-hexamethyl-15-oxo-1-oxa-6-azacyclopentadecan-6-yl]-14-oxotetradecyl}triphenylphosphonium hexafluorophosphate(V)], 9.9%.
The figure for `CC[C@H]1OC(=O)[C@H](C)[C@@H](O[C@H]2C[C@@](C)(OC)[C@@H](O)[C@H](C)O2)[C@H](C)[C@@H](O[C@@H]2O[C@H](C)C[C@H](N(C)C)[C@H]2O)[C@](C)(O)C[C@@H](C)CN(C(=O)CCCCCCCC[P+](c2ccccc2)(c2ccccc2)c2ccccc2)[C@H](C)[C@@H](O)[C@]1(C)O` [Example 3, {9-[(2R,3S,4R,5R,8R,10R,11R,12S,13S,14R)-11-{[(2S,3R,4S,6R)-4-(dimethylamino)-3-hydroxy-6-methyloxan-2-yl]oxy}-2-ethyl-3,4,10-trihydroxy-13-{[(2R,4R,5S,6S)-5-hydroxy-4-methoxy-4,6-dimethyloxan-2-yl]oxy}-3,5,8,10,12,14-hexamethyl-15-oxo-1-oxa-6-azacyclopentadecan-6-yl]-9-oxononyl}triphenylphosphonium hexafluorophosphate(V)] is 98.4%; for `CC[C@H]1OC(=O)[C@H](C)[C@@H](O[C@H]2C[C@@](C)(OC)[C@@H](O)[C@H](C)O2)[C@H](C)[C@@H](O[C@@H]2O[C@H](C)C[C@H](N(C)C)[C@H]2O)[C@](C)(O)C[C@@H](C)CN(C(=O)CCCCN(C)CC[P+](c2ccccc2)(c2ccccc2)c2ccccc2)[C@H](C)[C@@H](O)[C@]1(C)O.[Br-]` [Example 24, [2-({5-[(2R,3S,4R,5R,8R,10R,11R,12S,13S,14R)-11-{[(2S,3R,4S,6R)-4-(dimethylamino)-3-hydroxy-6-methyloxan-2-yl]oxy}-2-ethyl-3,4,10-trihydroxy-13-{[(2R,4R,5S,6S)-5-hydroxy-4-methoxy-4,6-dimethyloxan-2-yl]oxy}-3,5,6,8,10,12,14-hexamethyl-15-oxo-1-oxa-6-azacyclopentadecan-6-yl]-5-oxopentyl}(methyl)amino)ethyl]triphenylphosphonium bromide] it is 49.1%.
With `CC[C@H]1OC(=O)[C@H](C)[C@@H](O[C@H]2C[C@@](C)(OC)[C@@H](O)[C@H](C)O2)[C@H](C)[C@@H](O[C@@H]2O[C@H](C)C[C@H](N(C)C)[C@H]2O)[C@](C)(O)C[C@@H](C)CN(CCCCCC(=O)N(C)CC[P+](c2ccccc2)(c2ccccc2)c2ccccc2)[C@H](C)[C@@H](O)[C@]1(C)O.[Br-]` [Example 22], the “% Confluence” value amounted to 102.7%.
The figure for `CC[C@H]1OC(=O)[C@H](C)[C@@H](O[C@H]2C[C@@](C)(OC)[C@@H](O)[C@H](C)O2)[C@H](C)[C@@H](O[C@@H]2O[C@H](C)C[C@H](N(C)C)[C@H]2O)[C@](C)(O)C[C@@H](C)CN(CCCCCCCC[P+](c2ccccc2)(c2ccccc2)c2ccccc2)[C@H](C)[C@@H](O)[C@]1(C)O.[I-]` [Example 7, {8-[(2R,3S,4R,5R,8R,10R,11R,12S,13S,14R)-11-{[(2S,3R,4S,6R)-4-(dimethylamino)-3-hydroxy-6-methyloxan-2-yl]oxy}-2-ethyl-3,4,10-trihydroxy-13-{[(2R,4R,5S,6S)-5-hydroxy-4-methoxy-4,6-dimethyloxan-2-yl]oxy}-3,5,8,10,12,14-hexamethyl-15-oxo-1-oxa-6-azacyclopentadecan-6-yl]octyl}triphenylphosphonium iodide] is 23.3%.
